Patent US4188398A, “Method for treating epilepsy” (priority 1978, dated 1980)
Entries after “also recorded” stand apart in the source; their conditions may differ.

Tests used:
actinomyces = test: Mutagenicity, Air-Shibalsky technique, actinomyces; format: cell-based
[1] = test system: threonine locus of Bacillus coli; test: Mutagenicity, threonine locus of Bacillus coli; format: cell-based; details: 0.2-mole concentration, 24 hours
Method: (§1) The preparation was further studied with regard to the threonine locus of Bacillus coli at a 0.2-mole concentration; the object was subjected to treatment during 24 hours; the survival rate of the cells was between 42 and 91 percent.

[2] = Mutagenicity, threonine locus of Bacillus coli; format: cell-based; details: bacillus coli, 0.2-mole concentration
Method: as §1

[3] = Duration of activity, maximum electroshock test; format: in vivo, white mice
Method: (§2) Corazol convulsions and maximum electroshock tests were carried out to determine the duration of the preparation's activity. Two series of experiments were made on white mice weighing 20 to 25 g. In the first series, the preparation was introduced intraperitoneally, whereas in the second series it was introduced into the stomach through a metal probe.
(§3) The anticonvulsive action of effective doses of the proposed preparation (200 mg/kg were introduced intraperitoneally, and 400 mg/kg were introduced per os) was tested every 30 minutes on separate groups of mice, each including 100 animals. The tests were continued until complete termination of the anticonvulsive effect.

[4] = Daily administration for eight weeks, rabbits (chronic toxicity); format: in vivo; details: 200 mg/kg intraperitoneally once a day
Method: (§4) The effects of daily administrations of the proposed anticonvulsant, carried out over prolonged periods of time, were studied on rabbits and rats.
A 2-percent colloidal solution of the proposed preparation was introduced intraperitoneally in doses of 200 mg/kg to five rabbits. This was done once a day for eight weeks. The same amounts of a colloidal solution of a carboxymethyl cellulose were administered intraperitoneally to three control rabbits.
(§5) Every day the animals' weight and body temperature were measured, and their general state was assessed. Once a week, a general blood analysis was made, the urine was analyzed for protein, blood and biliary pigments. Upon the end of the experiment, the animals were killed (the rabbits were destroyed by air embolism; the rats were decapitated). The liver, heart, kidneys, spleen, lungs and different parts of the small intestine and stomach of the freshly killed animals were taken for pathomorphological investigation.

[5] = General effect on behaviour of rabbits; format: in vivo; details: 500 to 600 mg/kg
[6] = test system: lysin locus of actinomyces; test: Mutagenicity, lysin locus of actinomyces; format: cell-based; details: same doses
[7] = Duration of Nembutal-induced sleep; format: in vivo; details: P = 0.05; Nembutal 40 mg/kg; proposed preparation 100 mg/kg, zarontin 150 mg/kg, milontin 100 mg/kg
From the text: (§6) Nembutal was used as a trunk narcotic, and urethane as a cortical narcotic.

[8] = Duration of urethane-induced sleep; format: in vivo
From the text: as §6

Arecoline tremor test = test: Arecoline tremor test; design: species or system mice and rats; details: in vivo
Bacillus coli = format: cell-based
[9] = Other pharmacological properties (vegetative nervous system, blood pressure, breathing, neuromuscular conduction); format: in vivo; details: intraperitoneally or per os
[10] = Duration of activity, corazol test; format: in vivo, white mice
Method: as §2, §3

[11] = Maximum electroshock test
Method: (§7) The anticonvulsant action of the proposed preparation was tested on mice weighing 19 to 25 g and rats weighing 120 to 150 g by conducting maximum electroshock, corazol, strychnine, camphor, nicotine and arecoline tests.

[12] = Acute toxicity, single intraperitoneal administration, 48 hours (Litchfield and Wilcockson); format: in vivo, white mice
Method: The acute toxicity of the proposed preparation was tested on white mice weighing 19 to 20 g, by single intraperitoneal administrations of 1.5- and 10-percent colloidal solutions of the anticonvulsant in a 0.5-percent solution of carboxymethyl cellulose. The animals were observed during 48 hours. In order to establish the median lethal dose (LD50), the experimental data was statistically processed using the Litchfield and Wilcockson techniques. Milontin and zarontin were analyzed in the same way.

[13] = Nicotine-induced convulsions; format: in vivo, mice
Method: as §7

[14] = Daily administration for eight weeks, rats (chronic toxicity); format: in vivo; details: 400 mg/kg per os once a day
Method: as §4
A colloidal solution of the proposed antispasmodic was administered per os in doses of 400 mg/kg to six rats. The drug was introduced through a metal probe once a day for eight weeks.
as §5

[15] = Electroencephalographic study of threshold and afteraction discharges, curarized animals; format: in vivo, cats and rabbits; details: 150 to 200 mg/kg
Method: The central action of the preparation was studied electroencephalographically. The acute experiments were conducted on curarized cats and rabbits and were aimed at investigating the effects of the preparation upon the threshold magnitude and the duration of afteraction discharges of the dorsal hippocamp, […] nuclei of the thalamus and the motor zone of the cortex.

[16] = corazol, 200 mg/kg intraperitoneally

Method for Camphor convulsions test: as §7

## CC(C)Oc1ccc(C2CC(=O)NC2=O)cc1 (stereo not drawn) [proposed preparation, α-/para-isopropoxyphenyl/succinimide]
actinomyces
  mutagenous effect: no mutagenous effect
[1]
  genetic action: extremely weak genetic action
  revertants induced: no more than 17 revertants
[2]; read-out: revertants relative to control (spontaneous mutation)
  fold induction at 24 h, 200000 µM: 1.8
[2]; read-out: survival rate of the cells
  viability at 24 h, 200000 µM: 42 to 91%
[3]; maximum electroshock
  time for which effect is maintained at its peak: seven
[3]; maximum electroshock test
  duration of effect, oral versus intraperitoneal: lasts longer in the case of oral administration
[4]
  organ changes, macroscopic and microscopic histochemical investigation: no changes were observed
  weight, body temperature, general state, blood and urine composition: no changes were registered in the weight, body temperature and general state of the animals
[5]
  effect on behaviour of rabbits: no conspicuous changes in the behaviour
Camphor convulsions test; Mus musculus, read-out: ED50 (camphor)
  ED50: 90 mg/kg
Camphor convulsions test; camphor
  protection index I=TD50/ED50, Camphor: 8
  protection index PI (mean lethal dose / mean effective dose), Camphor: 23.9
[6]
  mutagenous effect: weak mutagenous effect
  revertants induced: no more than 41 revertants
  revertants relative to control: thrice as great as that of the control
[7]
  Average Duration of Nembutal-Induced Sleep: 99 ± 67.6 min
[8]; P = 0.05, urethane 1,000 mg/kg, proposed preparation 100 mg/kg, zarontin 150 mg/kg, milontin 100 mg/kg
  Average Duration of Urethane-Induced Sleep: 3.2 ± 1.3 min
[8]; in words
  effect upon the duration of urethane-induced sleep: no effect upon the duration of urethane-induced sleep
Arecoline tremor test
  effect on arecoline tremor: does not hinder the development of arecoline tremor
Bacillus coli
  mutagenous effect: no mutagenous effect
[9]
  blood pressure, breathing and neuromuscular conduction: no changes are observed in the blood pressure, breathing and neuromuscular conduction
  effect on the vegetative nervous system: no effect upon the vegetative nervous system
[10]; corazol test
  duration of effect, oral versus intraperitoneal: lasts longer in the case of oral administration
[10]; [16]
  time after which effect totally disappears: three
  time of maximum anticonvulsive effect: 60 min
[10]; corazol, 400 mg/kg per os
  time after which activity is gradually brought down: six
  time after which effect totally disappears: about eight
  time for which maximum level is maintained: four and a half
  time of maximum anticonvulsive effect: 90 min
[11]; Mus musculus, read-out: ED50 (Electroshock)
  ED50: 77 mg/kg
[11]; electroshock
  protection index I=TD50/ED50, Electroshock: 9.35
  protection index PI (mean lethal dose / mean effective dose), Electroshock: 28
[11]; in words
  anticonvulsant activity in maximum electroshock test: anticonvulsant activity was only exhibited by the proposed preparation and milontin
[12]; compared with milontin and zarontin
  relative toxicity: the least toxic of all; also recorded: more than two times less toxic than milontin; also recorded: one and half times less toxic than zarontin
[12]; intraperitoneal, white mice, P=0.05, 2880 min, listed as Preparation in accordance with invention
  LD50: 2,150 (1,930 to 2,390) mg/kg
[12]; mouse, in vivo, ip, intraperitoneal, white mice, P=0.05
  LD50 at 48 h: 2150 mg/kg
[13]; 200 mg/kg, mice
  effect on intensity of nicotine-induced convulsions: markedly reduced the intensity of convulsions
[13]; 300 mg/kg
  effect on nicotine-induced convulsions and tremor: effectively prevents convulsions and tremor
[13]; Mus musculus
  ED50: 190 mg/kg
[14]
  organ changes, macroscopic and microscopic histochemical investigation: no changes were observed
  weight, body temperature, general state, blood and urine composition: no changes were registered in the weight, body temperature and general state of the animals
[15]
  afteraction discharges of the thalamic nuclei: prevented afteraction discharges of the thalamic nuclei
  convulsion threshold of the hippocamp: slightly raised the convulsion threshold of the hippocamp
  period of discharges in the cortex: considerably reduces the period of discharges in the cortex
  spread of convulsive activity to other brain structures: prevents the spread of the convulsive activity to other brain structures
  stimulation threshold of the motor zone of the cortex: does not raise the stimulation threshold of the motor zone of the cortex
